Laboratory results taken from paper PMC10691770, “Inhibition of Parkinson’s disease–related LRRK2 by type I and type II kinase inhibitors: Activity and structures” (Science Advances, 2023).

Experiments:
[1] = LRRK2-IN-1 ref 18; HG-10-102-01 ref 19; cited from earlier work
[2] = system: LRRK2^KW (G2019S); assay: Differential scanning fluorimetry (DSF) thermal shift assay, G2019S mutant; assay type: binding; details: inhibitor 10 μM
Description: The assay was performed according to a previously established protocol ([37]). Briefly, a solution of 4 μM LRRK2^KW protein in assay buffer [20 mM Hepes (pH 7.4), 150 mM NaCl, 0.5 mM Tris (2-carboxyethyl) phosphine (TCEP), 20 μM GDP, 2.5 mM MgCl2, and 0.5% glycerol] was mixed 1:1000 with SYPRO Orange (Sigma-Aldrich). The inhibitors to be tested were added to a final concentration of 10 μM. Twenty microliters of each sample were placed in a 96-well plate and heated gradually from 25° to 95°C. Fluorescence was monitored using an MX3005P real-time PCR instrument (Stratagene) with excitation and emission filters set to 465 and 590 nm, respectively. Data were analyzed with the MxPro software.

[3] = system: LRRK2(WT) and LRRK2(G2019S); parameters: method as in PMID 34515301; details: cited from earlier work
[4] = target: T1, LRRK2^RCKW (Homo sapiens, UniProt Q5S007); assay: MS-based kinase activity assay (Rab8A phosphorylation); assay type: biochemical; details: 50 nM LRRK2^RCKW, 5 μM Rab8A, 1 mM ATP, ESI-MS readout
T1 construct: His6-Z (TEV site) (N, cleaved yes); made in house; host or cells: Sf9 insect cells (baculovirus)
T1 sequence (Q5S007 1327-2527): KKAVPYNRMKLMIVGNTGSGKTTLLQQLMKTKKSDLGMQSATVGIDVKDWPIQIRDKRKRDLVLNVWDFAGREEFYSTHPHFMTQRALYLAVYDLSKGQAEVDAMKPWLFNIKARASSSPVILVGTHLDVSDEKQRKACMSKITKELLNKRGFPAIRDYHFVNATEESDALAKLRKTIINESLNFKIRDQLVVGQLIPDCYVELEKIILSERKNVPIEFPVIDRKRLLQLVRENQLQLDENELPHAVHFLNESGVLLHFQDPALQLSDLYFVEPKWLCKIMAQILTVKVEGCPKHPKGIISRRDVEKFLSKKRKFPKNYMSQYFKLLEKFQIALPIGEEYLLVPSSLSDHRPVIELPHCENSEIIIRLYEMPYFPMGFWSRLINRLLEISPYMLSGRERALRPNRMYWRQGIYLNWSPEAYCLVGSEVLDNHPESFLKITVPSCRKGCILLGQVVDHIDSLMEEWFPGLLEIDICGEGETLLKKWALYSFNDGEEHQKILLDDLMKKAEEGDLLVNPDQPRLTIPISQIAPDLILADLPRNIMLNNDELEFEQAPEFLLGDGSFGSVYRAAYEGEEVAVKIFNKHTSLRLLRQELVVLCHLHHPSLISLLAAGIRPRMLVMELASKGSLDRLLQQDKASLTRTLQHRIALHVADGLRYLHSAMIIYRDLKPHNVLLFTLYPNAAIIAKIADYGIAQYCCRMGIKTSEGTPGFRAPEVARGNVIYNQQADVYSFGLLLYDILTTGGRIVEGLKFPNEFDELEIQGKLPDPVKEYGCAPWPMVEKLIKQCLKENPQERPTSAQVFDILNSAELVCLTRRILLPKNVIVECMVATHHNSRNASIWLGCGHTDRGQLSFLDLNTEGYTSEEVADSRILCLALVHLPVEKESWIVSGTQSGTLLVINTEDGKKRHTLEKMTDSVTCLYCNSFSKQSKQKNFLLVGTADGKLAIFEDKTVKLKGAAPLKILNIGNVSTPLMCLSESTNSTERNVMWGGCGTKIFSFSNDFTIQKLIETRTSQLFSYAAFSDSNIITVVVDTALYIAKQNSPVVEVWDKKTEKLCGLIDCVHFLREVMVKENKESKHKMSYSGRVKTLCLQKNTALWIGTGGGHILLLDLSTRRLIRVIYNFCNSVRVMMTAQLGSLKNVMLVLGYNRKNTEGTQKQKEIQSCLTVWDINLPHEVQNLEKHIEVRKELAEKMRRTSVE
Excerpt: To compare the activity of the selected LRRK2 inhibitors, we developed a mass spectrometry (MS)–based kinase activity assay using an established endogenous substrate. We subjected the Rab8A GTPase domain (residues 6 to 176) to LRRK2^RCKW phosphorylation in the presence of varying concentrations of a given inhibitor and directly quantified the amount of phosphorylated Rab8A (pRab8A) by ESI-MS (fig. S1C).
To determine the IC50 values for a set of LRRK2 inhibitors, the phosphorylation of the LRRK2 substrate Rab8A was assessed by applying an MS-based activity assay. LRRK2^RCKW protein (50 nM) was mixed with 5 μM substrate and varying concentrations of the inhibitors in assay buffer [20 mM Hepes (pH 7.4), 150 mM NaCl, 0.5 mM TCEP, 20 μM GDP, 2.5 mM MgCl2, and 0.5% glycerol]. The reaction was started by adding 1 mM ATP and incubated at room temperature (RT). […] Data were acquired using the MassHunter LC/MS Data Acquisition software and analyzed using the BioConfirm vB.08.00 tool (both Agilent Technology) (https://www.agilent.com/en/product/software-informatics/mass-spectrometry-software, RRID: SCR_016657). The peak intensities of the unphosphorylated and phosphorylated Rab8A species were quantified and the relative kinase activity was calculated. […]

Q: For `CNc1nc(Nc2ccc(C(=O)N3CCOCC3)cc2OC)ncc1Cl` [HG-10-102-01], which brain penetrance [1] is on record?
A: brain penetrant

Q: Which results are given for `CC1CN(c2cc(-c3n[nH]c4ccc(OC5(C)CC5)cc34)ncn2)CC(C)O1` (stereo not drawn) [MLi-2]?
A: ΔTM [2]: 18 K; inhibition of LRRK2(G2019S) better than LRRK2(WT) ([3]; purified full-length LRRK2, in vitro assay with a peptide kinase substrate): ~ 2 fold

Q: What does the source list for `COc1cc(C(=O)N2CCC(N3CCN(C)CC3)CC2)ccc1Nc1ncc2c(n1)N(C)c1ccccc1C(=O)N2C` [LRRK2-IN-1]?
A: IC50 (inhibition of Rab8A phosphorylation), in words [4]: high nanomolar range; brain penetrance [1]: low brain penetrance

Q: Which “IC50 for LRRK2(WT) lower than that for LRRK2(G2019S)” value ([3]; in vitro phosphorylation assay) does the source give for `Cc1ccc(C(=O)Nc2ccc(CN3CCN(C)CC3)c(C(F)(F)F)c2)cc1C#Cc1cnc2[nH]ncc2c1` [GZD-824] here?
A: ~ 4 fold
